Experimental data from ChEMBL document CHEMBL1130741, “Carboxy-substituted 2-azetidinones as cholesterol absorption inhibitors” (1998).

Assays:
Type in all cases: functional, Cricetulus griseus
[1] = tested on: Cricetinae gen. sp.; assay: Compound was tested for percent reduction of serum cholesterol absorption in cholesterol fed hamster model at an oral dose of 3 mg/kg/day
[2] = tested on: Cricetinae gen. sp.; assay: Compound was tested for percent reduction of liver cholesterol esters absorption in cholesterol fed hamster model at an oral dose of 3 mg/kg/day
[3] = tested on: Cricetinae gen. sp.; assay: Compound was tested for percent reduction of serum cholesterol absorption in cholesterol fed hamster model at an oral dose of 10 mg/kg/day
[4] = tested on: Cricetinae gen. sp.; assay: Compound was tested for percent reduction of liver cholesterol esters absorption in cholesterol fed hamster model at an oral dose of 10 mg/kg/day
[5] = tested on: Cricetinae gen. sp.; assay: Dose required to inhibit cholesterol absorption in cholesterol fed hamster model
[6] = tested on: Cricetinae gen. sp.; assay: Compound was tested for percent reduction of liver cholesterol esters absorption in cholesterol fed hamster model at an oral dose of 50 mg/kg/day

Structure (SMILES) | Reduction [1] | Reduction [2] | Reduction [3] | Reduction [4] | Reduction [6] | further results
COC(=O)Cc1ccc([C@@H]2[C@@H](CCCc3ccccc3)C(=O)N2c2ccc(F)cc2)cc1 | -16% | -61% |  |  |  | 
CCN(CC)C(=O)CCc1ccc([C@@H]2[C@@H](CCCc3ccccc3)C(=O)N2c2ccc(F)cc2)cc1 |  |  | 0% | -19% |  | 
COC(=O)Cc1ccc([C@@H]2[C@@H](CCCc3ccccc3)C(=O)N2c2ccc(OC)cc2)cc1 | -26% | -89% |  |  |  | ED50 [5]: 0.95 mg/kg/day
COC(=O)C(C)(C)Oc1ccc([C@@H]2[C@@H](CCCc3ccccc3)C(=O)N2c2ccc(OC)cc2)cc1 |  |  |  |  | -80% | 
O=C(O)CCc1ccc([C@@H]2[C@@H](CCCc3ccccc3)C(=O)N2c2ccc(F)cc2)cc1 |  |  | -32% | -63% |  | 
COC(=O)/C=C/c1ccc([C@@H]2[C@@H](CCCc3ccccc3)C(=O)N2c2ccc(OC)cc2)cc1 |  |  |  |  | -90% | 
COC(=O)CCc1ccc([C@@H]2[C@@H](CCCc3ccccc3)C(=O)N2c2ccc(F)cc2)cc1 |  |  | -26% | -72% |  | 
COC(=O)CCc1ccc([C@@H]2[C@@H](CCCc3ccccc3)C(=O)N2c2ccc(OC)cc2)cc1 | -20% | -76% |  |  |  | ED50 [5]: 0.85 mg/kg/day
CCN(CC)C(=O)Cc1ccc([C@@H]2[C@@H](CCCc3ccccc3)C(=O)N2c2ccc(F)cc2)cc1 |  |  | 0% | -19% |  | 
O=C(O)Cc1ccc([C@@H]2[C@@H](CCCc3ccccc3)C(=O)N2c2ccc(F)cc2)cc1 |  |  | -44% | -97% |  | ED50 [5]: 1.1 mg/kg/day
COC(=O)c1ccc([C@@H]2[C@@H](CCCc3ccccc3)C(=O)N2c2ccc(F)cc2)cc1 | 0% | -16% |  |  |  | 
O=C(O)c1ccc([C@@H]2[C@@H](CCCc3ccccc3)C(=O)N2c2ccc(F)cc2)cc1 | 0% | -37% |  |  |  | 
COc1ccc(N2C(=O)[C@H](CCCc3ccccc3)[C@H]2c2ccc(OC(C)(C)C(=O)O)cc2)cc1 (racemic) |  |  |  |  | -75% | 
COC(=O)CCc1ccc([C@@H]2[C@@H](CCCc3ccccc3)C(=O)N2c2ccc(OC)cc2)cc1 (racemic) |  |  |  |  | -93% | 
COc1ccc([C@@H]2[C@@H](CCCc3ccccc3)C(=O)N2c2ccc(OC)cc2)cc1 (racemic) [SCH-48461] |  |  |  |  | -78% | 
COc1ccc([C@@H]2[C@@H](CCCc3ccccc3)C(=O)N2c2ccc(OC)cc2)cc1 [SCH-48461] |  |  | -43% | -93% |  | ED50 [5]: 2 mg/kg/day
